Data reported in US4035386A, “Propynylamine-substituted dibenzo[b,f]thiepins and dibenz[b,f]oxepins” (Hoffmann-La Roche Inc., priority 1976, dated 1977).

Tests used:
[1] = test system: homovanillinic acid (HVA); assay: Determination of homovanillinic acid (HVA) in brains of treated rats; dopamine turnover in the basal ganglions; assay type: in vivo; details: for Increase of HVA, %: two hours before killing, untreated rats set at 100%; for activity in HVA test compared with chlorpromazine (in words): p.o., in comparison to chlorpromazine
Experimental: I. determination of Homovanillinic Acid
Two hours prior to being killed, rats are injected with the test substance.
Thereafter, the homovanillinic acid is extracted from the supernatent portion of a homogenized mixture of brains of the treated rats into butylacetate and later into an aqueous solution and is oxidized with potassium ferric cyanide to a fluorescent […]. […] The homovanillinic titer in untreated rats is arbitrarily set at 100%.

in vivo = details: rats, intraperitoneal; for ED50 at 6 h: rat, in vivo, ip, observed every 30 minutes over a 6-hour period, cataleptic = homolateral extremities crossed at least 10 seconds, read-out: ED50 (dose at which 50% of the animals are cataleptic); for cataleptic effect (in words): in comparison to chlorpromazine
Experimental: The following compounds were tested:
The foregoing compounds were compared to chlorpromazine, a well-known central depressant, especially well-known as a neuroleptic agent. The test animals are considered to be cataleptic when the homolateral extremities remain in the crossed position for at least 10 seconds. The number of cataleptic animals is recorded every 30 minutes over a 6-hour period.

## CN(C)CCCN1c2ccccc2Sc2ccc(Cl)cc21 [Chlorpromazine, reference compound]
[1]; 20 mg/kg p.o.
  Increase of HVA, %: 321%
In vivo
  ED50 at 6 h: 6 mg/kg
  cataleptic effect (in words): does demonstrate cataleptic effects

## CN(C)CC#CC1=Cc2ccccc2Sc2ccc(Cl)cc21.O=C(O)/C=C\C(=O)O [Product B, N,N-dimethyl-3-(8-chloro-dibenzo[b,f]thiepin-10-yl)-2-propynylamine maleate]
[1]; 50 mg/kg p.o.
  Increase of HVA, %: 370%
[1]
  activity in HVA test compared with chlorpromazine (in words): as strong an activity as chlorpromazine
In vivo
  ED50 at 6 h: 100 mg/kg
  cataleptic effect (in words): no or, respectively, very weak cataleptic effect

## COc1ccc2c(c1)Sc1ccc(Cl)cc1C(C#CCN(C)C)=C2.CS(=O)(=O)O [Product C, N,N-dimethyl-3-(8-chloro-3-methoxydibenzo[b,f]thiepin-10-yl)-2-propynylamine methanesulfonate]
[1]; 30 mg/kg p.o.
  Increase of HVA, %: 320%
[1]
  activity in HVA test compared with chlorpromazine (in words): as strong an activity as chlorpromazine
In vivo
  ED50 at 6 h: > 100 mg/kg
  cataleptic effect (in words): no or, respectively, very weak cataleptic effect

## CSc1ccc2c(c1)C(C#CCN(C)C)=Cc1ccccc1S2.O=C(O)/C=C\C(=O)O [Product A, N,N-dimethyl-3-[8-(methylthio)-dibenzo[b,f]thiepin-10-yl]-2-propynylamine maleate]
[1]; 50 mg/kg p.o.
  Increase of HVA, %: 330%
[1]
  activity in HVA test compared with chlorpromazine (in words): as strong an activity as chlorpromazine
In vivo
  ED50 at 6 h: > 100 mg/kg
  cataleptic effect (in words): no or, respectively, very weak cataleptic effect
